Measurements from patent US20230174562A1, “RADIO-AND CHEMO-PROTECTIVE COMPOUNDS” (TONIX PHARMACEUTICALS, INC., priority 2020, published 2023).

Experiments:
[1] = cited from earlier work
[2] = Hygroscopicity on 10 minute exposure to the atmosphere; assay type: physicochemical; conditions: 10 minute exposure of a small amount to the atmosphere; diHCl salt
Protocol: In Reaction E: 48 ml of HCl in methanol, 6 eq. (1.25 M solution, Aldrich #17935) was added to a solution of compound V, 3.5 g, 0.010 moles dissolved in 10 ml dry methanol in a flask under argon and equipped for magnetic stirring and the reaction was stirred at room temperature for 24 hours. […] The solution was degassed by gently bubbling argon into the solution for 30 minutes. Concentration (rotary evaporator at ambient temperature) provided a crude oily residue which was triturated with hexane producing a white solid. The hexane was removed (via pipette suction) and replaced with dry THF (25 ml). After an additional 10 minutes of trituration, the THF was removed and replaced with dry hexane (25 ml). After an additional 10 minutes of trituration, the hexane was removed and the resulting white solid was dried in vacuo over P2O5 providing 1.95 grams of diHCl salt of PrC-210 (88%). […]
In Reaction P: Compound XVI, 2.2 grams, 0.0058 moles was placed in a round-bottom flask equipped for magnetic stirring followed by 15 mL anhydrous trifluoroacetic acid (CF3COOH, Aldrich #8.08260). The flask was fitted with a condenser and the solution was refluxed for 5 hours whereupon it was determined that the reaction was complete using TLC by observing the disappearance of starting material and the appearance of a highly polar product, which stained positive with ninhydrin. […]

[3] = tested on: mice exposed to total body irradiation (TBI); experiment: Phase 2 efficacy: survival of mice dosed before total body irradiation (TBI) at LD100/30; assay type: in vivo; conditions: for survival compared to vehicle (Group 13) by Log-rank (Mantel-Cox) test / number of animals survived until scheduled sacrifice (Day 30) / number of mice found dead / number of mice moribund sacrificed / survival compared to vehicle (Group 13) by Chi-square test: 1000 mg/kg oral gavage before TBI 9.9 Gy; for Survival: Day 30, 11 animals; for Survival / median survival time: male mice, 1000 mg/kg oral gavage 60±5 min before TBI 9.9 Gy (LD100/30); for body weight gain on Days 5 to 9: compared to the vehicle group (Group 13); for number of animals survived until scheduled sacrifice (Day 30) / number of mice found dead / number of mice moribund sacrificed: of 11 mice; for survival of animals through 30 days post exposure: treated prior to total body irradiation (LD100/30)
Protocol: (§1) Male mice were randomized and assessed in two phases: 1) for maximum tolerated doses (MTDs) of PrC-210, DzCH2SH, and 2Pip-2PrSH to determine dose levels for the efficacy study and 2) to evaluate the efficacy of the compounds when administered 60±5 minutes prior to exposure to total body irradiation (TBI) at an LD100/30 dose (990 cGy) (Tables 1 and 2).
(§2) For Phase 1 or 2, sterile water (vehicle), PrC-210, DzCH2SH, and 2Pip2PrSH were administered at 10 mL/kg calculated based on the most recent body weight via oral gavage. Animals were not fasted prior to administration of the compounds or vehicle. Mice in Phase 1 were administered the dose on Day 1 and mice in Phase 2 were administered the dose 60±5 minutes prior to TBI on Day 0.
Irradiation was administered once to the whole body. TBI of mice were performed using a 6 MV LINAC photon source (TrueBeam STx source). Animals were irradiated at a dose rate of up to 80 cGy/min to the midline of the animals. The source irradiated animals to 50% of the dose from anterior-posterior direction and […] from the posterior-anterior direction. Dose measurements were performed with a PTW 31010 0.1 cc Semiflex Ion chamber.
(§3) All surviving animals were observed once daily for clinical signs (e.g., unusually low or high activity, lethargy, shivering, appearance of fur, bloody and water stool, and other symptoms of moribundity) at 1-2 hours post-irradiation and/or post-dose and once daily on non-dosing days until Day 4 (Phase 1) or Day 30 (Phase 2).
In Phase 2 (Table 2), survival curves of mice treated with vehicle, PrC-210, DzCH2SH or 2Pip-PrSH prior to TBI with 9.9 Gy were measured (FIG. 1). […] Five mice were moribund sacrificed, and 6 mice were found dead. Survival in the Group 13 animals was 0% and median survival time was 8 days. In mice administered with PrC-210 before TBI (Group 14), 4 animals survived until scheduled sacrifice (Day 30) while 7 mice were moribund sacrificed. […] In mice administered with DzCH2SH before TBI (Group 15), 3 animals survived until scheduled sacrifice (Day 30) while 7 mice were moribund sacrificed, and one mouse was found dead. […] Five mice were moribund sacrificed and six mice were found dead. Survival in the Group 16 mice was 0% and median survival time was 10 days.

mice = experiment: Phase 1 maximum tolerated dose (MTD) determination in mice; assay type: in vivo; conditions: male mice; oral gavage; 1,000 mg/kg
Protocol: as §1, §2, §3
In Phase 1 (Table 1), all animals were normal when observed and all body weights were within normal range. The dose level of 1000 mg/kg was selected for Phase 2.

[4] = tested on: mice exposed to whole body irradiation; experiment: Radiation LD50 in mice after whole body irradiation; assay type: in vivo; conditions: oral gavage 60 minutes prior to whole body irradiation 2-12 Gy, 30 days
Protocol: The affect of the compounds according to the disclosure on the dose of radiation required to kill 50% of mice (LD50) is assessed.
Mice are assigned to three groups (Groups 1, 2 and 3). A control group, Group 1, is treated via oral gavage with vehicle (Lactated Ringer's and 5% dextrose, adjusted to pH 7.3 with sodium bicarbonate) 60 minutes prior to whole body irradiation (2 Gy). Group 2 is treated via oral gavage with PrC-210, as a positive control, dissolved in Lactated Ringer's at a dose of 200 mg/kg 60 minutes prior to whole body irradiaton (2 Gy). Group 3 is treated via oral gavage with compound 1 (PrC-210-PT) dissolved in Lactated Ringer's at a dose of 308 mg/kg 60 minutes prior to whole body irradiation (2 Gy). The mortality of the three groups is assessed for 30 days post irradiation.
The experiment is repeated using varying radiation doses of 4, 6, 8, 10 and 12 Gy. The LD50 for each group was determined.
The experiment is repeated to assess compounds 2-23 as radioprotectors.

[5] = tested on: mice exposed to radiation; experiment: Protection of mice from lethal radiation (8 Gy, LD100); assay type: in vivo; conditions: oral gavage 15-90 minutes prior to 8 Gy (LD100), 60 days post irradiation
Protocol: The radioprotective efficacy of the thiols, prodrugs and double prodrugs according to this disclosure is assessed in mice. The compounds of the disclosure are administered via oral gavage to mice, and are compared to mice that have been administered 3-(methylamino)-2-(methylaminomethyl)propane-1-thiol (PrC-210), as well as to a control group or mice that are administered vehicle (i.e., containing no radioprotective additive).
More specifically, mice are assigned to three groups (Groups 1, 2 and 3). A control group, Group 1, is treated via oral gavage with vehicle (Lactated Ringer's and 5% dextrose, adjusted to pH 7.3 with sodium bicarbonate) 15-90 minutes prior to a dose of 8 Gy (LD100) radiation. Group 2 is treated via oral gavage with PrC-210, as a positive control, dissolved in Lactated Ringer's at a dose of 200 mg/kg 15-90 minutes prior to irradiation with 8 Gy (LD100). Group 3 is treated via oral gavage with compound 1 (PrC-210-PT) dissolved in Lactated Ringer's at a dose of 308 mg/kg 15-90 minutes prior to irradiation with 8 Gy (LD100). The mortality of the three groups is assessed for 60 days post irradiation. The experiment is repeated with doses of PrC-210 ranging from 200 mg/kg to 450 mg/kg. Molar equivalent dosages of the test compound (compound 1, Prc-210-PT) to PrC-210 are also assessed.
The experiment is repeated to assess the efficacy of compounds 2-23 as radioprotectors.

[6] = after 1000 mg/kg oral gavage and TBI 9.9 Gy, 11 per group
[7] = after 1000 mg/kg oral gavage and TBI 9.9 Gy

Row | Structure (SMILES) | hygroscopicity [2] | survival compared to vehicle (Group 13) by Log-rank (Mantel-Cox) test [3] | Survival [3] [%] | number of animals with cold to touch skin [3, 6] | number of animals with eye discharge [3, 6] | number of animals with hypoactivity [3, 6] | number of animals with swollen eye [3, 6] | number of mice with lethargy [3, 6] | number of mice with swollen head [3, 6] | body weight gain on Days 5 to 9 [3, 7] | median survival time [3] [days] | number of animals survived until scheduled sacrifice (Day 30) [3] | number of mice found dead [3] | number of mice moribund sacrificed [3] | survival of animals through 30 days post exposure [3] | toxicity at the highest tested dose (mice) | survival compared to vehicle (Group 13) by Chi-square test [3] | other results
1 | NCCCNCCSP(=O)(O)O [Amifostine, amifostine] |  |  |  |  |  |  |  |  |  |  |  |  |  |  |  |  |  | efficacy as a radioprotector ([1]; administered orally): lacks efficacy
2 | SCC1CNCCNC1 [Compound 22, (1,4-diazepan-6-yl)methanethiol] | did not show any signs of hygroscopicity | statistically significantly higher | 27.3 | one | 2 | 5 | 2 | one | one | did not gain body weights | 11 | 3 | one | 7 | increased survival | did not produce any toxicity |  | mortality rate at 8-days post-irradiation ([3]; 1000 mg/kg oral gavage before TBI): efficacious effects; number of animals with eye cloudy [3, 6]: 2; number of animals with sunken eye [3, 6]: 1; number of mice with eye opacity [3, 6]: one; number of mice with labored breathing [3, 6]: one
3 | CC(C)(S)C1CNCCN1 (centres unmarked) [Compound 2Pip-2PrSH, 2-(piperazin-2-yl)propane-2-thiol] |  | statistically significantly higher | 0 | 4 | one | 5 | one | one | one | did not gain body weights | 10 | no animals survived | six | Five |  | did not produce any toxicity | not statistically significantly different | 
4 | CNCC(CS)CNC [PrC-210, 3-(methylamino)-2-((methylamino)methyl)propane-1-thiol, reference compound] | did not show any signs of hygroscopicity | statistically significantly higher | 36.4 |  | one | 5 | one |  |  | significantly higher | 11 | 4 |  | 7 | increased survival | did not produce any toxicity | statistically significantly higher | radiation LD50 versus control group [4]: control group demonstrates a lower LD50 compared to the mice treated with; mean body weight on Day 9 versus Groups 13, 15 and 16 [3, 7]: higher; number of mice with tremor [3, 6]: 4; rate of survival versus control group [5]: control group demonstrates a reduced rate of survival compared to the mice treated with; radioprotective properties ([1]; administered topically and orally in preclinical studies): demonstrated radioprotective properties; side effects ([1]; compared with Amifostine): less side effects than Amifostine
